Active and inactive are the calls of the source. No cut-off for these calls is given here.
Assays:
NUGC-3 [1] = assay: Growth of human NUGC3 cells at 1 uM after 48 hrs by SRB assay; settings: NUGC-3, 48 h
NUGC-3 [2] = assay: Growth inhibition of human NUGC3 cells after 48 hrs by SRB assay; assay type: functional; settings: NUGC-3, 48 h
PC-3 [3] = assay: Growth inhibition of human PC3 cells at 0.1 uM after 48 hrs by SRB assay; values are per cent of control; settings: PC-3, 48 h
NCI-H23 [4] = assay: Growth of human NCI-H23 cells at 0.3 uM after 48 hrs by SRB assay; settings: NCI-H23, 48 h
NCI-H23 [5] = assay: Growth of human NCI-H23 cells at 10 uM after 48 hrs by SRB assay; settings: NCI-H23, 48 h
PC-3 [6] = assay: Growth of human PC3 cells at 10 uM after 48 hrs by SRB assay; settings: PC-3, 48 h
ACHN [7] = assay: Growth of human ACHN cells at 0.3 uM after 48 hrs by SRB assay
[8] = target: Rho-related GTP-binding protein RhoB (Homo sapiens) (UniProt P62745); assay: Transactivation of RhoB (unknown origin) transfected in human HeLa cells at 5 uM measured over 10 secs by dual luciferase reporter gene assay; assay type: cell-based
Chain of Rho-related GTP-binding protein RhoB (Homo sapiens) (P62745 whole entry): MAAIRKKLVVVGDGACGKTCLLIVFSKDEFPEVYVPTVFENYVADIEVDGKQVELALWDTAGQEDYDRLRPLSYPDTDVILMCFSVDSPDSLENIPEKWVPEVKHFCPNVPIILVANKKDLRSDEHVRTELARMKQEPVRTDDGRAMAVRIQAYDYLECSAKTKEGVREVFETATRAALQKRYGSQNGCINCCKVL

HCT-15 [9] = assay: Growth inhibition of human HCT15 cells after 48 hrs by SRB assay; assay type: functional; settings: HCT-15, 48 h
ACHN [10] = assay: Growth inhibition of human ACHN cells at 3 uM after 48 hrs by SRB assay; values are per cent of control
MDA-MB-231 [11] = assay: Growth inhibition of human MDA-MB-231 cells at 0.3 uM after 48 hrs by SRB assay; values are per cent of control; settings: MDA-MB-231, 48 h
MDA-MB-231 [12] = assay: Growth of human MDA-MB-231 cells at 10 uM after 48 hrs by SRB assay; settings: MDA-MB-231, 48 h
NUGC-3 [13] = assay: Growth of human NUGC3 cells at 0.1 uM after 48 hrs by SRB assay; settings: NUGC-3, 48 h
PC-3 [14] = assay: Growth inhibition of human PC3 cells at 0.3 uM after 48 hrs by SRB assay; values are per cent of control; settings: PC-3, 48 h
HCT-15 [15] = assay: Growth inhibition of human HCT15 cells at 10 uM after 48 hrs by SRB assay; values are per cent of control; settings: HCT-15, 48 h
ACHN [16] = assay: Growth inhibition of human ACHN cells at 1 uM after 48 hrs by SRB assay; values are per cent of control
HCT-15 [17] = assay: Growth inhibition of human HCT15 cells at 1 uM after 48 hrs by SRB assay; values are per cent of control; settings: HCT-15, 48 h
ACHN [18] = assay: Growth inhibition of human ACHN cells after 48 hrs by SRB assay; assay type: functional
MDA-MB-231 [19] = assay: Growth inhibition of human MDA-MB-231 cells after 48 hrs by SRB assay; assay type: functional; settings: MDA-MB-231, 48 h
NUGC-3 [20] = assay: Growth inhibition of human NUGC3 cells at 3 uM after 48 hrs by SRB assay; values are per cent of control; settings: NUGC-3, 48 h
PC-3 [21] = assay: Growth inhibition of human PC3 cells at 3 uM after 48 hrs by SRB assay; values are per cent of control; settings: PC-3, 48 h
HCT-15 [22] = assay: Growth inhibition of human HCT15 cells at 0.1 uM after 48 hrs by SRB assay; values are per cent of control; settings: HCT-15, 48 h
NCI-H23 [23] = assay: Growth inhibition of human NCI-H23 cells at 3 uM after 48 hrs by SRB assay; values are per cent of control; settings: NCI-H23, 48 h
NUGC-3 [24] = assay: Growth of human NUGC3 cells at 0.3 uM after 48 hrs by SRB assay; settings: NUGC-3, 48 h
PC-3 [25] = assay: Growth inhibition of human PC3 cells after 48 hrs by SRB assay; assay type: functional; settings: PC-3, 48 h
MDA-MB-231 [26] = assay: Growth of human MDA-MB-231 cells at 1 uM after 48 hrs by SRB assay; settings: MDA-MB-231, 48 h
MDA-MB-231 [27] = assay: Growth of human MDA-MB-231 cells at 0.1 uM after 48 hrs by SRB assay; settings: MDA-MB-231, 48 h
NUGC-3 [28] = assay: Growth inhibition of human NUGC3 cells at 10 uM after 48 hrs by SRB assay; values are per cent of control; settings: NUGC-3, 48 h
NCI-H23 [29] = assay: Growth inhibition of human NCI-H23 cells after 48 hrs by SRB assay; assay type: functional; settings: NCI-H23, 48 h
PC-3 [30] = assay: Growth inhibition of human PC3 cells at 1 uM after 48 hrs by SRB assay; values are per cent of control; settings: PC-3, 48 h
NCI-H23 [31] = assay: Growth inhibition of human NCI-H23 cells at 0.1 uM after 48 hrs by SRB assay; values are per cent of control; settings: NCI-H23, 48 h
HCT-15 [32] = assay: Growth of human HCT15 cells at 3 uM after 48 hrs by SRB assay; settings: HCT-15, 48 h
HCT-15 [33] = assay: Growth of human HCT15 cells at 0.3 uM after 48 hrs by SRB assay; settings: HCT-15, 48 h
NCI-H23 [34] = assay: Growth inhibition of human NCI-H23 cells at 1 uM after 48 hrs by SRB assay; values are per cent of control; settings: NCI-H23, 48 h
MDA-MB-231 [35] = assay: Growth of human MDA-MB-231 cells at 3 uM after 48 hrs by SRB assay; values are per cent of control; settings: MDA-MB-231, 48 h
ACHN [36] = assay: Growth of human ACHN cells at 10 uM after 48 hrs by SRB assay
ACHN [37] = assay: Growth of human ACHN cells at 0.1 uM after 48 hrs by SRB assay

Activity [8]: Active | GI50 (HCT-15 [9]): 1610 nM | GI50 (ACHN [18]): 1310 nM | GI50 (MDA-MB-231 [19]): 1170 nM | GI50 (PC-3 [25]): 520 nM | GI50 (NCI-H23 [29]): 550 nM
SMILES: CCCCCCCCCCCCCCCCS(=O)(=O)N(C)CC[N+](CC)(CC)CC
growth, % of control at 1 µM (NUGC-3 [1]): 19.6% | GI50 (NUGC-3 [2]): 220 nM | growth, % of control at 0.1 µM (PC-3 [3]): 95.5% | growth, % of control at 0.3 µM (NCI-H23 [4]): 93.7% | growth, % of control at 10 µM (NCI-H23 [5]): 3.4% | growth, % of control at 10 µM (PC-3 [6]): -21.4% | growth, % of control at 0.3 µM (ACHN [7]): 92.8% | growth, % of control at 3 µM (ACHN [10]): 43.4% | growth, % of control at 0.3 µM (MDA-MB-231 [11]): 96.5% | growth, % of control at 10 µM (MDA-MB-231 [12]): 20% | growth, % of control at 0.1 µM (NUGC-3 [13]): 69.8% | growth, % of control at 0.3 µM (PC-3 [14]): 84.7% | growth, % of control at 10 µM (HCT-15 [15]): 21.8% | growth, % of control at 1 µM (ACHN [16]): 70.4% | growth, % of control at 1 µM (HCT-15 [17]): 73.5% | growth, % of control at 3 µM (NUGC-3 [20]): 5.8% | growth, % of control at 3 µM (PC-3 [21]): 11.3% | growth, % of control at 0.1 µM (HCT-15 [22]): 83% | growth, % of control at 3 µM (NCI-H23 [23]): 15.5% | growth, % of control at 0.3 µM (NUGC-3 [24]): 70.3% | growth, % of control at 1 µM (MDA-MB-231 [26]): 65.5% | growth, % of control at 0.1 µM (MDA-MB-231 [27]): 87.3% | growth, % of control at 10 µM (NUGC-3 [28]): -4% | growth, % of control at 1 µM (PC-3 [30]): 47.5% | growth, % of control at 0.1 µM (NCI-H23 [31]): 94% | growth, % of control at 3 µM (HCT-15 [32]): 50.9% | growth, % of control at 0.3 µM (HCT-15 [33]): 87.6% | growth, % of control at 1 µM (NCI-H23 [34]): 44.3% | growth, % of control at 3 µM (MDA-MB-231 [35]): 37.4% | growth, % of control at 10 µM (ACHN [36]): 15.4% | growth, % of control at 0.1 µM (ACHN [37]): 92.6%

— ChEMBL document CHEMBL2434921, “New synthetic aliphatic sulfonamido-quaternary ammonium salts as anticancer chemotherapeutic agents” (2013)
